Counter-ions that a name gives are not always drawn. Like-named read-outs stand apart in the source and are kept apart here.
Molecular target: T1, horseradish peroxidase (HRP) tagged delF508-CFTR (Homo sapiens, UniProt P13569, DEL508-508)
T1 construct: expressed in transfected cells
Test: Measurement of delF508-CFTR-HRP surface expression in CFBE41o- cells;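 as to DelF508-CFTR-HRP Amax %: percent efficacy relative to reference corrector lumacaftor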
Assay type: cell-based
Conditions: CFBE41o- cells; for EC50: read-out: DelF508-CFTR-HRP EC50; for Emax: read-out: DelF508-CFTR-HRP Amax %
Method in brief: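 CFBE41o- bronchial epithelial cells stably expressing delF508-CFTR with HRP in the fourth extracellular loop; expression induced 48h with 500 ng/mL doxycycline, then compounds added (top 10 μM, 10-point 3-fold series, ≤0.5% DMSO) for 24h at 37° C. Surface HRP measured by luminescence with cell-impermeant substrate; EC50 from logistic fit of triplicates, plate-normalized to lowest concentration; efficacy also relative to a reference corrector.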

[1] = mean of at least two replicates
[2] = delF508-CFTR-HRP surface expression

T1 sequence (P13569 with tags, fused parts or gaps DEL508-508): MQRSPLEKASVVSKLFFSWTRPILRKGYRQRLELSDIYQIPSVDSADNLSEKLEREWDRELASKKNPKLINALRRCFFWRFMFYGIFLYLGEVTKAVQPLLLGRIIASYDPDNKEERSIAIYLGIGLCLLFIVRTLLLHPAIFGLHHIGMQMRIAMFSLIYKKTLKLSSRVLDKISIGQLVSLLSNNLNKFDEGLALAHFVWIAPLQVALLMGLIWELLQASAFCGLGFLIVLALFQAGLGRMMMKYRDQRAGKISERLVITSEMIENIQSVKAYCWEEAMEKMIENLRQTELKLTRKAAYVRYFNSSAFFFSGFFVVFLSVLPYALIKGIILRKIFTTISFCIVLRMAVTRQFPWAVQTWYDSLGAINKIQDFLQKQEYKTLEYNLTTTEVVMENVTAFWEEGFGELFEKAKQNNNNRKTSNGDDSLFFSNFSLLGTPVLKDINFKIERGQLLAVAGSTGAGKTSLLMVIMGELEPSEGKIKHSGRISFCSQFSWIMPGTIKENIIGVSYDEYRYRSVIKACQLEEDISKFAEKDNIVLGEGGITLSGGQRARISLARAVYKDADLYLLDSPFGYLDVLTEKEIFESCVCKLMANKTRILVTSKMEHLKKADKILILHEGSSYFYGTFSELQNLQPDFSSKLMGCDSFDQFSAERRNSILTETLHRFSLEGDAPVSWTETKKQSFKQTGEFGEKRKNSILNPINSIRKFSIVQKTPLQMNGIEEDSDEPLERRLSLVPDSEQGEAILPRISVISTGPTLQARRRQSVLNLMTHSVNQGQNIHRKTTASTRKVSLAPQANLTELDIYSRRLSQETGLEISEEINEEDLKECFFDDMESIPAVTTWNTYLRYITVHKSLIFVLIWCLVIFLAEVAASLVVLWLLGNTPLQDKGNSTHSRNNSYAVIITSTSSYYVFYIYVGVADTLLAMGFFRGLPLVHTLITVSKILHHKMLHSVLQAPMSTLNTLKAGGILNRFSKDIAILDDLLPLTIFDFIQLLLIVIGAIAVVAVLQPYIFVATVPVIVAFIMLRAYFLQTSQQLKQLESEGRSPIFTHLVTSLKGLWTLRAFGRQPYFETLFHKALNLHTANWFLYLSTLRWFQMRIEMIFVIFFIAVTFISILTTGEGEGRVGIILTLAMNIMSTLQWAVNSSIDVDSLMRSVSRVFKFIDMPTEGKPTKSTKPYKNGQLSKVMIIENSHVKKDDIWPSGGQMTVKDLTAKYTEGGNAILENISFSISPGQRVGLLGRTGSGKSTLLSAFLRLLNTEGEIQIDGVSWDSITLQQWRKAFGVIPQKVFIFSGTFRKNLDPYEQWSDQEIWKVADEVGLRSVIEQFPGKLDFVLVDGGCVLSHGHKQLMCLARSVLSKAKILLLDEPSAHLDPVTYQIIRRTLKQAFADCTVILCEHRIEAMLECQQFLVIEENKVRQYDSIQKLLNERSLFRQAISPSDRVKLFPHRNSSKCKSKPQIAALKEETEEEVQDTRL

| EC50 [1] | Emax (surface expression Amax) | Emax [2] | EC50 [2] | SMILES |
| --- | --- | --- | --- | --- |
| 2300 nM | 714% |  |  | Cc1ccc(F)cc1-c1nc(NS(=O)(=O)c2cccc(N3CCC[C@](C)(C(=O)O)C3)n2)ccc1C(F)(F)F [Example 435, (3S)-1-(6-{[6-(5-fluoro-2-methylphenyl)-5-(trifluoromethyl)pyridin-2-yl]sulfamoyl}pyridin-2-yl)-3-methylpiperidine-3-carboxylic Acid] |
|  |  | 199% | 3300 nM | Nc1cccc(S(=O)(=O)Nc2ccc(Cl)c(-c3ccccc3F)n2)n1 [Example 69, 6-amino-N-(5-chloro-6-(2-fluorophenyl)pyridin-2-yl)pyridine-2-sulfonamide] |
| 1680 nM | 713% |  |  | Cc1ccccc1-c1nc(NS(=O)(=O)c2cccc(N3CCC[C@](C)(C(=O)O)C3)n2)ccc1C(F)(F)F [Example 428, (3S)-3-methyl-1-(6-{[6-(2-methylphenyl)-5-(trifluoromethyl)pyridin-2-yl]sulfamoyl}pyridin-2-yl)piperidine-3-carboxylic Acid] |
|  |  | 209% | 2420 nM | Cc1cccc(C)c1-c1cccc(NS(=O)(=O)c2cccc(N)n2)n1 [Example 68, 6-amino-N-(6-(2,6-dimethylphenyl)pyridin-2-yl)pyridine-2-sulfonamide] |
|  |  | 148% | 4610 nM | Cc1ccccc1-c1nc(NS(=O)(=O)c2cccc(N[C@H]3CCNC3)n2)ccc1C(F)(F)F [Example 124, (S)-6-(pyrrolidin-3-ylamino)-N-(6-(o-tolyl)-5-(trifluoromethyl)pyridin-2-yl)pyridine-2-sulfonamide Hydrochloride] |
|  |  | 158% | 2840 nM | Cc1ccccc1-c1nc(NS(=O)(=O)c2cccc(N)n2)ccc1C [Example 75, 6-amino-N-(5-methyl-6-(o-tolyl)pyridin-2-yl)pyridine-2-sulfonamide] |
|  |  | 271% | 626 nM | Cc1ccc(C(F)(F)F)cc1-c1nc(NS(=O)(=O)c2cccc(N3CCN(C(=O)OC(C)(C)C)CC3)n2)ccc1Cl [Example 168, tert-butyl 4-(6-(N-(5-chloro-6-(2-methyl-5-(trifluoromethyl)phenyl)pyridin-2-yl)sulfamoyl)pyridin-2-yl)piperazine-1-carboxylate] |
|  |  | 962% | 1720 nM | CCc1ccccc1-c1nc(NS(=O)(=O)c2cccc(N3CCC[C@@H](C(=O)O)C3)n2)ccc1C(F)(F)F [Example 369, (R)-1-(6-(N-(6-(2-ethylphenyl)-5-(trifluoromethyl)pyridin-2-yl)sulfamoyl)pyridin-2-yl)piperidine-3-carboxylic Acid] |
| 2320 nM | 287% |  |  | COc1ccc(Cl)cc1-c1nc(NS(=O)(=O)c2cccc(N3CCC(C)(C(=O)O)CC3)n2)ccc1C(F)(F)F [Example 426, 1-(6-(N-(6-(5-chloro-2-methoxyphenyl)-5-(trifluoromethyl)pyridin-2-yl)sulfamoyl)pyridin-2-yl)-4-methylpiperidine-4-carboxylic Acid] |
|  |  | 602% | 2470 nM | CCOC(=O)C1(C)CCN(c2cccc(S(=O)(=O)Nc3ccc(Cl)c(-c4cccc(F)c4C)n3)n2)CC1 [Example 252, ethyl 1-(6-(N-(5-chloro-6-(3-fluoro-2-methylphenyl)pyridin-2-yl)sulfamoyl)pyridin-2-yl)-4-methylpiperidine-4-carboxylate] |
| 1220 nM |  |  |  | CCCc1ccccc1-c1nc(NS(=O)(=O)c2cccc(N3CCC[C@](C)(C(=O)O)C3)n2)ccc1C(F)(F)F [Example 425, (S)-3-methyl-1-(6-(N-(6-(2-propylphenyl)-5-(trifluoromethyl)pyridin-2-yl)sulfamoyl)pyridin-2-yl)piperidine-3-carboxylic Acid] |
| 778 nM | 729% |  |  | CC1(C(=O)O)CCCN(c2cccc(S(=O)(=O)Nc3ccc(C(F)(F)F)c(-c4ccccc4C4CC4)n3)n2)C1 (centres unmarked) [Example 402, 1-(6-(N-(6-(2-cyclopropylphenyl)-5-(trifluoromethyl)pyridin-2-yl)sulfamoyl)pyridin-2-yl)-3-methylpiperidine-3-carboxylic Acid] |

— patent US11066369B2, “N-(pyridin-2-yl)pyridine-sulfonamide derivatives and their use in the treatment of disease” (Novartis AG, priority 2016, dated 2021)
